Measured values from patent US20240310361A1, “METHOD OF […] RESPONSE OF CELL GROUP TO TEST SUBSTANCE” (CANON KABUSHIKI KAISHA, priority 2023, published 2024).

Tested on: PBMCs
Assay: Calcium-derived fluorescence check of immobilized Fluo-4-stained PBMCs with a calcium ionophore
Assay type: cell-based
Conditions: final concentration 1 μg/mL; PBMCs immobilized on BAM-modified glass bottom dish; FIG. 8/9
Procedure: It is found from FIG. 7 that the PBMCs can be immobilized under a dense state at positions subjected to the BAM modification. […] It was able to be recognized that the cells were immobilized so as to satisfy the condition. In addition, to recognize whether or not fluorescence derived from calcium was able to be observed with the immobilized cells, a calcium ionophore (A23187) was added at a final concentration of 1 μg/mL. […] FIG. 8 is a fluorescence image before the addition of the calcium ionophore, and FIG. 9 is a fluorescence image after the addition.
In this Example, the fluorescence images were acquired with an inverted microscope (TE200-U, manufactured by Nikon Corporation), a CCD camera (EM-CCD DIGITAL CAMERA/C9100-13, manufactured by Hamamatsu Photonics K.K.), and a filter set (excitation: from 450 nm to 490 nm, DM: 505 nm, fluorescence: 520 nm).
Floating PBMCs were recovered from the PBMCs cultured overnight, and 7 mL of PBS was added thereto, followed by centrifugation at 300 G for 8 minutes. The supernatant was removed, and the residue was suspended in 10 mL of PBS, followed by the counting of a cell number. […]

CNc1ccc2oc(C[C@H]3O[C@@]4(CC[C@H]3C)O[C@H]([C@H](C)C(=O)c3ccc[nH]3)[C@H](C)C[C@H]4C)nc2c1C(=O)O [A23187]
fluorescence derived from calcium in immobilized cells: fluorescence was able to be observed in each of substantially all the immobilized PBMCs
